Results: patent US20080063601A1, “Compositions and methods relating to polycystic kidney disease” (priority 2004, published 2008)
Read-outs that look alike come from different tables or passages of the source.

Tests used:
HeLa cells [1] = assay: [3H]-triptolide binding in presence or absence of extracellular calcium
Source text: To understand further the nature of triptolide's interaction within the cell, Applicant altered cell culture conditions to examine if [^3H]-triptolide binding would be affected. […] Additionally, it has been established that aberrant calcium signaling can result in cell death (Rizzuto, et al., 2003, Oncogene 22, 8619-8627; Orrenius, et al., 2003, Nat Rev Mol Cell Biol 4, 552-565). Due to triptolide's own link with NFκB and NF-AT and its propensity to induce cell death, Applicant assessed whether triptolide binding could be modulated by free calcium levels. Adherent HeLa cells were cultured in the presence or absence of calcium containing medium for 16 hours before [^3H]-triptolide addition. […] It is also noteworthy that an increase in cell density (not cell number) also increases triptolide binding regardless of calcium levels. Additionally, specific calcium chelation by 10 mM EGTA for one hour in calcium containing medium increased binding by nearly 2 fold.
Labeling studies were performed by the addition of approximately 30 nM [^3H]-triptolide directly into the culture media for one hour at 37° C. […] Total cell lysates were prepared (150 mM NaCl, 50 mM Tris-HCl pH 7.4, 1 mM EDTA, 1% Triton X-100, and Complete™ protease inhibitors (Roche)) and protein was quantitated before measuring the [^3H]-triptolide binding activity via liquid scintillation.

HeLa cells [2] = assay: [3H]-triptolide labeling followed by cellular fractionation; format: binding
Source text: To address first the nature of triptolide binding within the cell, Applicant determined this interaction was reversible as [^3H]-triptolide labeling was out competed by subsequent addition of excess unlabeled triptolide (FIG. 4A). […] Although 25% of the total cellular counts (i.e., representing bound triptolide) were found in the cytosolic fraction, it is uncertain whether this is specific binding or simply that free triptolide had dissociated from its binding protein due to experimental manipulation during fractionation. Since the data thus far had only shown binding within whole cells, Applicant next determined if this triptolide binding protein could be further characterized and/or enriched by its association with chromatographic reagents. HeLa cells were once again labeled with [^3H]-triptolide and total cell lysates were then passed over the anion exchange resin DEAE. […] Importantly, Applicant also observed that [^3H]-triptolide would only bind to intact cells in culture but would not bind to any component of a total cellular lysate as assessed by interaction with the DEAE resin. […]
For cellular fractionation studies, cells were allowed to swell on ice and lysed by passage through a syringe in a hypotonic lysis buffer (10 mM Tris-HCl+complete protease inhibitors). […] Gel slices were measured out in equal increments and the molecular weight range of each was calculated. […]

[3] = test system: Pkd1^−/− murine model of polycystic kidney disease; format: in vivo, mice; settings: for Alive Pkd1^−/− (birth): 0.07 mg/kg/day i.p. to pregnant mice; for Alive Pkd1^−/− (birth) / Ave. kidney wet weight Pkd1^−/−: E10.5 until birth; for Ave. kidney wet weight Pkd1^−/−: 0.07 mg/kg/day i.p.
Procedure: As per approved IACUC animal protocol, Pkd1^+/−/Pkd1^+/− mice were mated and pregnant mice were divided into control (DMSO) or experimental (triptolide) groups. A total volume of 100 μl of PBS with no more than 5% DMSO or DMSO/0.07 mg/kg/day triptolide was injected i.p. with a 28 G ½ insulin syringe. Mice were weighed and injected starting at E10.5 until birth. All pups were examined for length and developmental staging such as whisker formation. Kidneys were harvested, weighed, and fixed in 4% paraformaldehyde before histological preparation.
Kidneys were prepared by sagittal cross-sectioning and hematoxylin and eosin staining. All kidneys were photographed under the same magnification (4×) and cystic burden was computed using Image J analysis software (NIH). The area of cysts within the total area of the kidney (pixels) was calculated as a final percentage of cystic burden in the kidney. Immunohistochemical analysis of active caspase-3 was completed as per manufacturer's protocol.
Following successful Pkd1^+/− Pkd1^+/− matings, 0.07 mg/kg/day of triptolide or DMSO control was injected i.p. into pregnant mice until they gave birth. All pups were assessed for viability, length, developmental staging, and wet kidney weight. A total of 59 pups from DMSO treated females and 100 pups from triptolide treated females were examined for multiple parameters, such as genotypic distribution, developmental stage at time of birth, and average kidney weights (Table 1). […] Approximately 20% of all Pkd1^−/− mice were born alive from each treatment group. However, severe edematous abnormalities were obvious upon necropsy.

[4] = Pkd1^−/− pups, 0.07 mg/kg/day i.p. during gestation

For `CC(C)[C@]12O[C@H]1[C@@H]1O[C@]13[C@]1(O[C@H]1C[C@H]1C4=C(CC[C@@]13C)C(=O)OC4)[C@@H]2O` [triptolide], the “increase of [3H]-triptolide binding on calcium chelation” value (HeLa cells [1]; 10 mM EGTA 1 h in calcium containing medium) was roughly 2 fold, the “increase of [3H]-triptolide binding in absence of extracellular calcium” value (HeLa cells [1]; calcium-free medium 16 h before [3H]-triptolide) was 2-4 fold and the “cellular fraction that binds [3H]-triptolide” value (HeLa cells [2]; S-100, P-100, insoluble fractions) was “predominantly to the membrane fraction (P-100)”. The “total cellular counts (bound triptolide) found in the cytosolic fraction” value (HeLa cells [2]; S-100 fraction) was 25%, the “Alive Pkd1^−/− (birth)” value [3] was “Approximately 20%” and the “Alive Pkd1^−/− (birth)” value ([3]; listed as Triptolide) was 4 (22%). For the same compound, the “Ave. kidney wet weight Pkd1^−/−” value ([3]; mean ± SE) was 24.6 ± 0.8 mg, the “Ave. kidney wet weight Pkd1^−/−” value ([3]; mean ± SE, listed as Triptolide) was 21.8 ± 2.8 mg and the “active caspase-3 immunoreactivity in kidney sections” value ([3]; Pkd1^−/− kidneys, 0.07 mg/kg/day i.p. during gestation) was “did not show any significant activation of the caspase pathway”. For the same compound, the “diameter of cyst lumens on average” value [3, 4] was “smaller”, the maximum cyst burden [3, 4] was 25% and the “cystic burden (cyst area as percentage of total kidney area), average” value ([3]; Pkd1^−/− pups, 0.07 mg/kg/day i.p. during gestation, mean ± SE) was 15±2.1%. The “wet kidney weight or overall size of Pkd1^+/+ or Pkd1^+/− mice versus DMSO” value ([3]; mouse, in vivo) was “no significant difference”.
